# Laboratory results from patent US20250312323A1 (Cavion, Inc., priority 2018, published 2025).
# Assays:
# [1] = test system: patients with essential tremor; assay: T-CALM: treatment-emergent adverse events, discontinuations, dosage reductions; type: in vivo, human
# Experimental: T-CALM employed the following dose titration scheme: Week 1 at 4 mg BID (8 mg/day), Week 2 at 8 mg BID (16 mg/day) and Weeks 3 & 4 at 10 mg BID (20 mg/day). […] Adverse Events were coded using MedDRA V20.0. Only treatment emergent adverse events with an onset date and time after the initiation of study drug until 30 days after discontinuation of drug were reported. For subjects who experience the same coded event more than once, a single event was presented. Adverse events were attributed to a study week based on the onset date, i.e. events that started on or after Visit 1 and prior to Visit 2 were classified as Study Week 1.
# Adverse events are characterized by maximum severity, drug-related adverse events, serious adverse events and adverse events leading to discontinuation of study.
# Safety procedures involved collection of all TEAEs (treatment-emergent adverse events) coded into the Medical Dictionary for Regulatory Activities (MedDRA) version 20. Adverse events were classified by maximum severity, drug-related adverse events, serious adverse events, and adverse events leading to patient discontinuation.
# [2] = test system: patients with essential tremor; assay: T-CALM: TETRAS total score; type: in vivo, human
# Experimental: The Total TETRAS score was defined as the sum of the TETRAS performance subscale total score and the TETRAS ADL subscale score. TETRAS TOTAL score combines both patient reported outcome and objective measurement of tremor amplitude in a single score. Analyses of the TETRAS-ADL was conducted using the same type of ANCOVA model as described for the TETRAS-PS, using two-sided tests at the alpha=0.05 level of significance (FIG. 3 and Table 3).
# Both sets of scores were statistically analyzed.
# [3] = Day 15, change from baseline, N = 39
# [4] = Day 28, change from baseline, N = 37
compound,measurement,setting,value
CC(C)c1ccc(CC(=O)N[C@H](C)c2ccc(OCC(F)(F)F)cn2)cc1 [CX-8998],"AE Psychiatric Disorders, percent of subjects",[1]; onset in study week 2,(4%)
same,"AE Skin and Subcutaneous Tissue Disorders, number of subjects",[1]; onset in study week 2,0
same,"AE Vascular Disorders, number of subjects",[1]; onset in study week 2,1
same,"AE Vascular Disorders, percent of subjects",[1]; onset in study week 2,(2%)
same,"AE Any Event, percent of subjects",[1]; onset in study week 3,(17%)
same,"AE Central Nervous System Disorders, number of subjects",[1]; onset in study week 3,1
same,"AE Central Nervous System Disorders, percent of subjects",[1]; onset in study week 3,(2%)
same,"AE Ear and Labyrinth Disorders, number of subjects",[1]; onset in study week 3,0
same,"AE Eye Disorders, number of subjects",[1]; onset in study week 3,0
same,"AE Gastrointestinal Disorders, number of subjects",[1]; onset in study week 3,1
same,"AE Gastrointestinal Disorders, percent of subjects",[1]; onset in study week 3,(2%)
same,"AE Infections and Infestations, number of subjects",[1]; onset in study week 3,2
same,"AE Infections and Infestations, percent of subjects",[1]; onset in study week 3,(4%)
same,"AE Injury, Poisoning and Procedural Complications, percent of subjects",[1]; onset in study week 3,(2%)
same,"AE Investigations, number of subjects",[1]; onset in study week 3,1
same,"AE Investigations, percent of subjects",[1]; onset in study week 3,(2%)
same,"AE Metabolism and Nutrition Disorders, number of subjects",[1]; onset in study week 3,1
same,"AE Metabolism and Nutrition Disorders, percent of subjects",[1]; onset in study week 3,(2%)
same,"AE Musculoskeletal and Connective Tissue Disorders, number of subjects",[1]; onset in study week 3,1
same,"AE Musculoskeletal and Connective Tissue Disorders, percent of subjects",[1]; onset in study week 3,(2%)
same,"AE Neoplasms, number of subjects",[1]; onset in study week 3,0
same,"AE Psychiatric Disorders, number of subjects",[1]; onset in study week 3,3
same,"AE Psychiatric Disorders, percent of subjects",[1]; onset in study week 3,(6%)
same,"AE Respiratory, Thoracic and Mediastinal Disorders, percent of subjects",[1]; onset in study week 3,(2%)
same,"AE Skin and Subcutaneous Tissue Disorders, number of subjects",[1]; onset in study week 3,0
same,"AE Vascular Disorders, number of subjects",[1]; onset in study week 3,0
same,"AE Any Event, percent of subjects",[1]; onset in study week 4,(4%)
same,"AE Central Nervous System Disorders, number of subjects",[1]; onset in study week 4,0
same,"AE Ear and Labyrinth Disorders, number of subjects",[1]; onset in study week 4,0
same,"AE Eye Disorders, number of subjects",[1]; onset in study week 4,0
same,"AE Gastrointestinal Disorders, number of subjects",[1]; onset in study week 4,0
same,"AE Infections and Infestations, number of subjects",[1]; onset in study week 4,0
same,"AE Investigations, number of subjects",[1]; onset in study week 4,1
same,"AE Investigations, percent of subjects",[1]; onset in study week 4,(2%)
same,"AE Metabolism and Nutrition Disorders, number of subjects",[1]; onset in study week 4,1
same,"AE Metabolism and Nutrition Disorders, percent of subjects",[1]; onset in study week 4,(2%)
same,"AE Musculoskeletal and Connective Tissue Disorders, number of subjects",[1]; onset in study week 4,0
same,"AE Neoplasms, number of subjects",[1]; onset in study week 4,0
same,"AE Psychiatric Disorders, number of subjects",[1]; onset in study week 4,2
same,"AE Psychiatric Disorders, percent of subjects",[1]; onset in study week 4,(4%)
same,"AE Skin and Subcutaneous Tissue Disorders, number of subjects",[1]; onset in study week 4,0
same,"AE Vascular Disorders, number of subjects",[1]; onset in study week 4,0
same,"AE Any Event, percent of subjects",[1]; onset in study week >4,(2%)
same,"AE Central Nervous System Disorders, number of subjects",[1]; onset in study week >4,1
same,"AE Central Nervous System Disorders, percent of subjects",[1]; onset in study week >4,(2%)
same,"AE Ear and Labyrinth Disorders, number of subjects",[1]; onset in study week >4,0
same,"AE Eye Disorders, number of subjects",[1]; onset in study week >4,0
same,"AE Gastrointestinal Disorders, number of subjects",[1]; onset in study week >4,0
same,"AE Infections and Infestations, number of subjects",[1]; onset in study week >4,0
same,"AE Investigations, number of subjects",[1]; onset in study week >4,0
same,"AE Metabolism and Nutrition Disorders, number of subjects",[1]; onset in study week >4,0
same,"AE Musculoskeletal and Connective Tissue Disorders, number of subjects",[1]; onset in study week >4,0
same,"AE Neoplasms, number of subjects",[1]; onset in study week >4,0
same,"AE Psychiatric Disorders, number of subjects",[1]; onset in study week >4,0
same,"AE Skin and Subcutaneous Tissue Disorders, number of subjects",[1]; onset in study week >4,0
same,"AE Vascular Disorders, number of subjects",[1]; onset in study week >4,0
same,"Subjects with improvement of at least 5 points by TETRAS Total score, number","[2]; Day 15, N 39",22
same,"TETRAS Total Score, subjects with 0 change, n (%)",[2]; [3],1 (2.6%)
same,"TETRAS Total Score, subjects with >0 to 1 point improvement, n (%)",[2]; [3],2 (5.1%)
same,"TETRAS Total Score, subjects with >0 to 1 point worsening, n (%)",[2]; [3],2 (5.1%)
same,"TETRAS Total Score, subjects with >1 to 2.5 point improvement, n (%)",[2]; [3],2 (5.1%)
same,"TETRAS Total Score, subjects with >1 to 2.5 point worsening, n (%)",[2]; [3],1 (2.6%)
same,"TETRAS Total Score, subjects with >2.5 to 5 point improvement, n (%)",[2]; [3],7 (17.9%)
same,"TETRAS Total Score, subjects with >2.5 to 5 point worsening, n (%)",[2]; [3],4 (10.3%)
same,"TETRAS Total Score, subjects with >5 to 10 point improvement, n (%)",[2]; [3],6 (15.4%)
same,"TETRAS Total Score, subjects with >5 to 10 point worsening, n (%)",[2]; [3],0
same,"TETRAS Total Score, subjects with >10 point worsening, n (%)",[2]; [3],0
same,"TETRAS Total Score, subjects with >10 to 20 point improvement, n (%)",[2]; [3],12 (30.8%)
same,"TETRAS Total Score, subjects with >20 point improvement, n (%)",[2]; [3],2 (5.1%)
same,"total TETRAS score with TETRAS-PS rated by independent video raters, vs placebo",[2]; Day 15 or 28,not statistically significant
same,"Subjects with improvement of at least 5 points by TETRAS Total score, number","[2]; Day 28, N 37",21
same,"TETRAS Total Score, subjects with 0 change, n (%)",[2]; [4],0
same,"TETRAS Total Score, subjects with >0 to 1 point improvement, n (%)",[2]; [4],2 (5.4%)
same,"TETRAS Total Score, subjects with >0 to 1 point worsening, n (%)",[2]; [4],4 (10.8%)
same,"TETRAS Total Score, subjects with >1 to 2.5 point improvement, n (%)",[2]; [4],2 (5.4%)
same,"TETRAS Total Score, subjects with >1 to 2.5 point worsening, n (%)",[2]; [4],2 (5.4%)
same,"TETRAS Total Score, subjects with >2.5 to 5 point improvement, n (%)",[2]; [4],5 (13.5%)
same,"TETRAS Total Score, subjects with >2.5 to 5 point worsening, n (%)",[2]; [4],1 (2.7%)
same,"TETRAS Total Score, subjects with >5 to 10 point improvement, n (%)",[2]; [4],7 (18.9%)
same,"TETRAS Total Score, subjects with >5 to 10 point worsening, n (%)",[2]; [4],0
same,"TETRAS Total Score, subjects with >10 point worsening, n (%)",[2]; [4],0
same,"TETRAS Total Score, subjects with >10 to 20 point improvement, n (%)",[2]; [4],8 (21.6%)
same,"TETRAS Total Score, subjects with >20 point improvement, n (%)",[2]; [4],5 (13.5%)
